From patent US10577363B2, “Substituted piperidine compounds” (EPIZYME, INC., priority 2014, dated 2020)

Legend:
SMYD3 [1] = biological target: T1, SMYD3 (Homo sapiens (Human), UniProt Q9H7B4); experiment: SMYD3 biochemical assay (SPA, 3H-SAM methylation of MEKK2 protein substrate); settings: read-out: SMYD3 Biochem IC50*
Method in brief: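 Tritium incorporation into GST-MEKK2 is counted by scintillation proximity after citric acid bead capture. Native human SMYD3 is preincubated with test compound for 30 min at room temperature at pH 8.0 (Tris-Cl, TCEP, BSG, Tween 20) before 3H-SAM and substrate are added; cold SAM at 100 uM final stops turnover.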

SMYD3 [2] = biological target: T1, SMYD3; experiment: SMYD3 cell assay (Trimethyl-MEKK2 In-Cell Western in 293T/17 cells); format: cell-based; settings: read-out: SMYD3 Cell IC50*
Method in brief: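 In-Cell Western ratio of trimethyl-Lys260 MEKK2 to anti-flag signal; percent inhibition from DMSO and maximum-inhibition controls, IC50 by non-linear regression, triplicates.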

T1 sequence (Q9H7B4 whole entry): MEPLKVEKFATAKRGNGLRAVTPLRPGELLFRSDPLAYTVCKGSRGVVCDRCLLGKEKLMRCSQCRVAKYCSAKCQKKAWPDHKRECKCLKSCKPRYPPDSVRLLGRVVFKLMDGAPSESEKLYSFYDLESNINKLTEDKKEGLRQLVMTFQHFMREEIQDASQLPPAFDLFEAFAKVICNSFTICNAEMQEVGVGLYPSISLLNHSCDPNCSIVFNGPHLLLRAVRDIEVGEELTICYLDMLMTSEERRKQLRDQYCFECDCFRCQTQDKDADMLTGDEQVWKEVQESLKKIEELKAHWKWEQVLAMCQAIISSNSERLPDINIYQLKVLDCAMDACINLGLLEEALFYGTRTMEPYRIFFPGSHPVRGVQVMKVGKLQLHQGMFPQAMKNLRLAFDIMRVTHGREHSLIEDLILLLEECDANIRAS

## O=C(N[C@H]1C[C@H]2CC[C@@H](C1)N2S(=O)(=O)C[C@@H]1CCCN1)c1cc(C2CC2)on1 [compound 930, 5-cyclopropyl-N-((1R,3S,5S)-8-((((S)-pyrrolidin-2-yl)methyl)sulfonyl)-8-azabicyclo[3.2.1]octan-3-yl)isoxazole-3-carboxamide]
SMYD3 [1]
  IC50: 37.1 nM
SMYD3 [2]
  IC50: 351 nM

## C[C@H](N)c1ccc(S(=O)(=O)N2[C@@H]3CC[C@H]2C[C@@H](NC(=O)c2cc(C4CC4)on2)C3)cc1 [compound 931, N-((1R,3S,5S)-8-((4-((S)-1-aminoethyl)phenyl)sulfonyl)-8-azabicyclo[3.2.1]octan-3-yl)-5-cyclopropylisoxazole-3-carboxamide]
SMYD3 [1]
  IC50: 37.2 nM
SMYD3 [2]
  IC50: 526 nM

## C[C@H]1C[C@@H](NC(=O)c2cc(C3CC3)on2)CCN1S(=O)(=O)N1C[C@H]2CC[C@@H](C1)[C@@H]2N [compound 932, N-((2S,4S)-1-(((1R,5S,8R)-8-amino-3-azabicyclo[3.2.1]octan-3-yl)sulfonyl)-2-methylpiperidin-4-yl)-5-cyclopropylisoxazole-3-carboxamide]
SMYD3 [1]
  IC50: 38.7 nM
SMYD3 [2]
  IC50: 351 nM

## CN1CC2CC(C1)N2S(=O)(=O)N1[C@@H]2CC[C@H]1C[C@@H](NC(=O)c1cc(C3CC3)on1)C2 [compound 933, 5-cyclopropyl-N-((1R,3r,5S)-8-((3-methyl-3,6-diazabicyclo[3.1.1]heptan-6-yl)sulfonyl)-8-azabicyclo[3.2.1]octan-3-yl)isoxazole-3-carboxamide]
SMYD3 [1]
  IC50: 42.4 nM
SMYD3 [2]
  IC50: 91.9 nM

## C[C@@H](N)c1ccc(S(=O)(=O)N2[C@@H]3CC[C@H]2C[C@@H](NC(=O)c2cc(C4CC4)on2)C3)cc1 [compound 934, N-((1R,3R,5S)-8-((4-((R)-1-aminoethyl)phenyl)sulfonyl)-8-azabicyclo[3.2.1]octan-3-yl)-5-cyclopropylisoxazole-3-carboxamide]
SMYD3 [1]
  IC50: 42.4 nM
SMYD3 [2]
  IC50: 494 nM

## C[C@H]1C[C@@H](NC(=O)c2cc(C3CC3)on2)CCN1S(=O)(=O)N1CCC(N(C)CCN2CCOCC2)CC1 [compound 935, 5-cyclopropyl-N-((2S,4S)-2-methyl-1-((4-(methyl(2-morpholinoethyl)amino)piperidin-1-yl)sulfonyl)piperidin-4-yl)isoxazole-3-carboxamide]
SMYD3 [1]
  IC50: 43 nM
SMYD3 [2]
  IC50: 414 nM

## CN(CCCN1CCOCC1)C1CCN(S(=O)(=O)N2[C@@H]3CC[C@H]2C[C@@H](NC(=O)c2cc(C4CC4)on2)C3)CC1 [compound 936, 5-cyclopropyl-N-((1R,3r,5S)-8-((4-(methyl(3-morpholinopropyl)amino)piperidin-1-yl)sulfonyl)-8-azabicyclo[3.2.1]octan-3-yl)isoxazole-3-carboxamide]
SMYD3 [1]
  IC50: 43.8 nM
SMYD3 [2]
  IC50: 623 nM

## CC[C@@H]1CNCCN1S(=O)(=O)N1CC[C@H](NC(=O)c2cc(C3CC3)on2)C[C@@H]1C [compound 937, 5-cyclopropyl-N-((2S,4S)-1-(((R)-2-ethylpiperazin-1-yl)sulfonyl)-2-methylpiperidin-4-yl)isoxazole-3-carboxamide]
SMYD3 [1]
  IC50: 43.9 nM
SMYD3 [2]
  IC50: 484 nM

## N#Cc1ccc(CNC2CCN(S(=O)(=O)N3[C@@H]4CC[C@H]3C[C@@H](NC(=O)c3cc(C5CC5)on3)C4)CC2)cc1 [compound 938, N-((1R,3r,5S)-8-((4-((4-cyanobenzyl)amino)piperidin-1-yl)sulfonyl)-8-azabicyclo[3.2.1]octan-3-yl)-5-cyclopropylisoxazole-3-carboxamide]
SMYD3 [1]
  IC50: 44.1 nM
SMYD3 [2]
  IC50: 508 nM

## O=C(N[C@H]1C[C@H]2CC[C@@H](C1)N2S(=O)(=O)N1CCNCC1c1ccccc1)c1cc(C2CC2)on1 (stereo partly drawn) [compound 939, 5-cyclopropyl-N-((1R,3r,5S)-8-((2-phenylpiperazin-1-yl)sulfonyl)-8-azabicyclo[3.2.1]octan-3-yl)isoxazole-3-carboxamide]
SMYD3 [1]
  IC50: 44.7 nM
SMYD3 [2]
  IC50: 361 nM

## CC1CN(S(=O)(=O)N2[C@@H]3CC[C@H]2C[C@@H](NC(=O)c2cc(C4CC4)on2)C3)C(C)CN1C (stereo partly drawn) [compound 941, 5-cyclopropyl-N-((1R,3r,5S)-8-((2,4,5-trimethylpiperazin-1-yl)sulfonyl)-8-azabicyclo[3.2.1]octan-3-yl)isoxazole-3-carboxamide]
SMYD3 [1]
  IC50: 47.9 nM
SMYD3 [2]
  IC50: 341 nM

## O=C(N[C@H]1C[C@H]2CC[C@@H](C1)N2S(=O)(=O)NC1CCN[C@H](Cc2ccccc2)C1)c1cc(C2CC2)on1 (stereo partly drawn) [compound 942, N-((1R,3R,5S)-8-(N-((2R)-2-benzylpiperidin-4-yl)sulfamoyl)-8-azabicyclo[3.2.1]octan-3-yl)-5-cyclopropylisoxazole-3-carboxamide]
SMYD3 [1]
  IC50: 48.1 nM
SMYD3 [2]
  IC50: 659 nM

## C[C@H](NC1CCN(S(=O)(=O)N2[C@@H]3CC[C@H]2C[C@@H](NC(=O)c2cc(C4CC4)on2)C3)CC1)c1ccc(F)cc1 [compound 943, 5-cyclopropyl-N-((1R,3S,5S)-8-((4-(((S)-1-(4-fluorophenyl)ethyl)amino)piperidin-1-yl)sulfonyl)-8-azabicyclo[3.2.1]octan-3-yl)isoxazole-3-carboxamide]
SMYD3 [1]
  IC50: 48.1 nM
SMYD3 [2]
  IC50: 602 nM

## C[C@@H](NC1CCN(S(=O)(=O)N2[C@@H]3CC[C@H]2C[C@@H](NC(=O)c2cc(C4CC4)on2)C3)CC1)c1ccc(F)cc1 [compound 944, 5-cyclopropyl-N-((1R,3R,5S)-8-((4-(((R)-1-(4-fluorophenyl)ethyl)amino)piperidin-1-yl)sulfonyl)-8-azabicyclo[3.2.1]octan-3-yl)isoxazole-3-carboxamide]
SMYD3 [1]
  IC50: 48.9 nM
SMYD3 [2]
  IC50: 683 nM

## O=C(N[C@H]1C[C@H]2CC[C@@H](C1)N2S(=O)(=O)N(Cc1ccccc1)C1CCNCC1)c1cc(C2CC2)on1 [compound 945, N-((1R,3r,5S)-8-(N-benzyl-N-(piperidin-4-yl)sulfamoyl)-8-azabicyclo[3.2.1]octan-3-yl)-5-cyclopropylisoxazole-3-carboxamide]
SMYD3 [1]
  IC50: 50.6 nM
SMYD3 [2]
  IC50: 223 nM

## O=C(N[C@H]1C[C@H]2CC[C@@H](C1)N2S(=O)(=O)c1ccc(CNCCO)cc1)c1cc(C2CC2)on1 [compound 946, 5-cyclopropyl-N-((1R,3r,5S)-8-((4-(((2-hydroxyethyl)amino)methyl)phenyl)sulfonyl)-8-azabicyclo[3.2.1]octan-3-yl)isoxazole-3-carboxamide]
SMYD3 [1]
  IC50: 51 nM
SMYD3 [2]
  IC50: 332 nM

## O=C(N[C@H]1C[C@H]2CC[C@@H](C1)N2S(=O)(=O)N1CCC(NCCN2CCOCC2)CC1)c1cc(C2CC2)on1 [compound 947, 5-cyclopropyl-N-((1R,3r,5S)-8-((4-((2-morpholinoethyl)amino)piperidin-1-yl)sulfonyl)-8-azabicyclo[3.2.1]octan-3-yl)isoxazole-3-carboxamide]
SMYD3 [1]
  IC50: 52.3 nM
SMYD3 [2]
  IC50: 338 nM

## O=C(N[C@H]1C[C@H]2CC[C@@H](C1)N2S(=O)(=O)NC1CCN(Cc2ccccc2)CC1)c1cc(C2CC2)on1 [compound 948, N-((1R,3r,5S)-8-(N-(1-benzylpiperidin-4-yl)sulfamoyl)-8-azabicyclo[3.2.1]octan-3-yl)-5-cyclopropylisoxazole-3-carboxamide]
SMYD3 [1]
  IC50: 52.4 nM
SMYD3 [2]
  IC50: 411 nM

## O=C(N[C@H]1CCN(S(=O)(=O)NC2CCNCC2)[C@@H](Cc2ccccc2)C1)c1cc(C2CC2)on1 [compound 949, N-((2S,4S)-2-benzyl-1-(N-(piperidin-4-yl)sulfamoyl)piperidin-4-yl)-5-cyclopropylisoxazole-3-carboxamide]
SMYD3 [1]
  IC50: 52.7 nM
SMYD3 [2]
  IC50: 1510 nM

## CC1CN(C)CCN1S(=O)(=O)N1[C@@H]2CC[C@H]1C[C@@H](NC(=O)c1cc(C3CC3)on1)C2 (stereo partly drawn) [compound 950, 5-cyclopropyl-N-((1R,3r,5S)-8-((2,4-dimethylpiperazin-1-yl)sulfonyl)-8-azabicyclo[3.2.1]octan-3-yl)isoxazole-3-carboxamide]
SMYD3 [1]
  IC50: 52.9 nM
SMYD3 [2]
  IC50: 390 nM

## CN(C1CCCNC1)S(=O)(=O)N1[C@@H]2CC[C@H]1C[C@@H](NC(=O)c1cc(C3CC3)on1)C2 (stereo partly drawn) [compound 951, 5-cyclopropyl-N-((1R,3r,5S)-8-(N-methyl-N-(piperidin-3-yl)sulfamoyl)-8-azabicyclo[3.2.1]octan-3-yl)isoxazole-3-carboxamide]
SMYD3 [1]
  IC50: 54.1 nM
SMYD3 [2]
  IC50: 395 nM

## CN1CCC[C@H](S(=O)(=O)N2[C@@H]3CC[C@H]2C[C@@H](NC(=O)c2cc(C4CC4)on2)C3)C1 [compound 952, 5-cyclopropyl-N-((1R,3S,5S)-8-(((S)-1-methylpiperidin-3-yl)sulfonyl)-8-azabicyclo[3.2.1]octan-3-yl)isoxazole-3-carboxamide]
SMYD3 [1]
  IC50: 56.2 nM
SMYD3 [2]
  IC50: 281 nM

## O=C(N[C@H]1C[C@H]2CC[C@@H](C1)N2S(=O)(=O)c1ccc(CN2CCCC2)cc1)c1cc(C2CC2)on1 [compound 953, 5-cyclopropyl-N-((1R,3r,5S)-8-((4-(pyrrolidin-1-ylmethyl)phenyl)sulfonyl)-8-azabicyclo[3.2.1]octan-3-yl)isoxazole-3-carboxamide]
SMYD3 [1]
  IC50: 57 nM
SMYD3 [2]
  IC50: 585 nM

## CC[C@H]1C[C@@H](NC(=O)c2cc(C3CC3)on2)CCN1S(=O)(=O)CC1CCN(C)CC1 [compound 954, 5-cyclopropyl-N-((2S,4S)-2-ethyl-1-(((1-methylpiperidin-4-yl)methyl)sulfonyl)piperidin-4-yl)isoxazole-3-carboxamide]
SMYD3 [1]
  IC50: 57.9 nM
SMYD3 [2]
  IC50: 583 nM

## COCCN1C2CCC1CN(S(=O)(=O)N1[C@@H]3CC[C@H]1C[C@@H](NC(=O)c1cc(C4CC4)on1)C3)C2 [compound 955, 5-cyclopropyl-N-((1R,3r,5S)-8-((8-(2-methoxyethyl)-3,8-diazabicyclo[3.2.1]octan-3-yl)sulfonyl)-8-azabicyclo[3.2.1]octan-3-yl)isoxazole-3-carboxamide]
SMYD3 [1]
  IC50: 59.2 nM
SMYD3 [2]
  IC50: 373 nM
